Consider 3 compounds from PMC8365604 (Journal of Medicinal Chemistry, 2021).

In brackets after ≈: the same amount, converted by molar mass. Where a name gives a salt, the structure may show the parent alone.

The data set can be described thus: physchem.
Usually solubility stands for how much of the substance goes into solution per volume. Higher therefore signals much dissolved substance. For the compound `O=C(O)c1ccc2c3c1cccc3c(=O)n1c3ccccc3nc21` [STO-609, 7-oxo-7H-benzimidazo[2,1-a]benz[de]isoquinoline-3-carboxylic acid, reference compound], the concentration in solution (solubility) came to 60 µg/mL (≈ 191 µM). Then `O=C(O)c1ccc(-c2ccncn2)cc1C1CCCC1` [compound 56, 2-Cyclopentyl-4-(pyrimidin-4-yl)benzoic Acid], with 10.6 µg/mL (≈ 39.5 µM); and `O=C(O)c1ccc(-c2ccnc(Nc3ccccc3)n2)cc1C1CCCC1` [compound 62, 2-Cyclopentyl-4-(2-(phenylamino)pyrimidin-4-yl)benzoic Acid Hydrochloride], with 19.4 µg/mL.
